Laboratory results as given in patent publication US9604931B2, “Nuclear receptor binding agents” (GTx, Inc., priority 2007, dated 2017).
Entries after “also recorded” stand apart in the source; their conditions may differ. Like-named read-outs stand apart in the source and are kept apart here.

Key:
[1] = system: ARPE-19 cells; test: Fluorescent detection of intracellular ROS; assay type: cell-based, Human; details: 150 μM tBH
Text: Cells were allowed to adhere overnight. […] Removed and washed cells once with HBSS. […] Each drug concentration was done in triplicates.

[2] = molecular target: ER-β (Rattus norvegicus (Rat), UniProt Q62986); test: ER-β transactivation (ERE-LUC) in COS or 293 cells; assay type: cell-based; details: for activation at 0.1 µM: HEK293, 48 h
Chain of ER-β (Q62986 whole entry): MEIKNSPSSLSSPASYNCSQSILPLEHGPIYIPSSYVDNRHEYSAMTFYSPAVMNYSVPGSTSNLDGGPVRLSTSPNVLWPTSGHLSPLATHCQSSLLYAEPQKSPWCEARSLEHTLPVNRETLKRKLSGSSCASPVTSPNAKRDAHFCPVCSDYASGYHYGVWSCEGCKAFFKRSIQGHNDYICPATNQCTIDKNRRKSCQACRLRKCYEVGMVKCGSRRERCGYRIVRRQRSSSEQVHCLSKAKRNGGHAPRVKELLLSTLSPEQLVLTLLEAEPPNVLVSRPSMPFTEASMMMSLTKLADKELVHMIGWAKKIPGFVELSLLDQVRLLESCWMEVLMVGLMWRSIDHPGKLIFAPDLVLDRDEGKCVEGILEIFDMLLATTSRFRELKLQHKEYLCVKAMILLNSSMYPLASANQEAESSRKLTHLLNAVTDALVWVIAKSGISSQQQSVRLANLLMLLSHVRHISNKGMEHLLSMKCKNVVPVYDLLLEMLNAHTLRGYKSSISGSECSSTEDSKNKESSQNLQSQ

[3] = system: Rat Aortic Smooth Muscle Cells (RASMC); test: RASMC cell proliferation assay (WST-1); assay type: cell-based; details: for EC50: inhibitory effect sigmoid Emax model, read-out: EC50 for inhibition of RASMC proliferation; for Proliferation of RASMC: concentration between 10-30 μM
Description: EC50 values were calculated using WinNonLin 5.0.1 using the inhibitory effect sigmoid Emax model.

[4] = molecular target: ER-α (Rattus norvegicus (Rat), UniProt P06211); assay type: cell-based; details: 100 nM compound compared to 1 nM estradiol
Description: COS or 293 cells were plated in DME without phenol red+10% cs FBS at 90,000 cells per well in 24 well plates, and were transfected with 0.25 μg of the vector “ERE-LUC”, where a firefly luciferase gene was driven by two estrogen responsive elements and 0.02 μg of the control CMV-LUC, Renilla where a luciferase gene was driven by a CMV promoter. […] All the receptors were cloned from rat tissue into the PCR3.1 vector backbone. Twenty four hours post transfection, cells were treated with compounds of this invention, estrogen, DHT, and other NRBAs or combinations thereof. Cells were harvested 48 hrs after transfection, and assayed for firefly and Renilla luciferase activity.

[5] = system: rat aorta rings; test: Rat aortic ring relaxation; details: 10^-6 PE constriction; for EC50: Rattus norvegicus
Text: Experimental protocol. Equipment used in these studies included a 4-tissue bath system with reservoirs and circulators (RadnotiGlass Technology, Monrovia, Calif.), DSI/Ponemah tissue force analyzer 7700 (Valley View, Ohio), and iWorx/CB Sciencesforce transducers FT-302. The 250 g rats were anesthetized with isoflurane to produce deep anesthesia. The chest of the rat was opened, and about 3 cm length of aorta was removed and placed in a Petri dish containing room temperature Krebs salt solution (KSS, in mM: 120 NaCl, 5 KCl, 1.2 MgSO4.7H20, 2.5 CaCl2.2H2O, 1 KH2PO4, 25 NaHCO3, and 11 glucose). Fat and connective tissue were removed from the aorta taking care not to stretch the vessel. The aorta was then divided into 3-mm-wide rings. Triangular wire holders were inserted through the lumen of the vessel and connected to the force transducer and tissue holder rod in the vessel bath.
Analog-to-digital conversions of force waveforms were accomplished with a DSI/Ponemah tissue force analyzer 7700. The converted data were automatically analyzed with Ponemah Physiology-Smooth Muscle software. All data are summarized as means±standard error. Differences between means were assessed by a conventional ANOVA. This was followed by Student's test. P<0.05 was considered to be statistically significant.
The tension on the rings was adjusted to 1.0 g passive force using the tension adjustment dial for each transducer and allowed to equilibrate for 60 min in the bath with a 95% O2-5% CO2 gas mixture. The rings were washed with fresh buffer every 20 min. Passive force was readjusted to 1.0 g as needed during this period. When rings were stable at 1.0 g of passive force, the baseline was calculated.
Phenylephrine (PE) at a final concentration of […] was added to the bath to contract the ring, and force was allowed to stabilize for 10 min. Then acetylcholine (ACH) at a final concentration of 10^−5 M was added to the precontracted rings to test for endothelial integrity […]. After the initial test for vessel viability and endothelial integrity, the rings were washed three times for 10 min with buffer, allowing it to equilibrate to active force stabilized at 1 g.
Cumulative concentration-response curves to NRBAs were created by increasing the NRBAs concentration in the tissue bath by successive addition of appropriate dilutions of stock solutions to achieve final bath concentrations of 300 nM to 0.15 mM NRBAs.
Table 10 summarizes EC50 values and maximal % decrease of the 10^−6 PE constriction of the aortic ring for individual NRBAs tested

[6] = molecular target: ERα ligand binding domain (Homo sapiens, UniProt P03372); test: Competitive [3H]-estradiol binding assay, ER-α (Example 21); details: for inhibition at 0.1 µM: 100 nM of compound, read-out: Percent Inhibition of [3H]-Estradiol Binding to ER-α; for Ki: read-out: ER-α binding constant (Ki)
Chain of ERα ligand binding domain (P03372 whole entry, looked up, the tested form may be a part): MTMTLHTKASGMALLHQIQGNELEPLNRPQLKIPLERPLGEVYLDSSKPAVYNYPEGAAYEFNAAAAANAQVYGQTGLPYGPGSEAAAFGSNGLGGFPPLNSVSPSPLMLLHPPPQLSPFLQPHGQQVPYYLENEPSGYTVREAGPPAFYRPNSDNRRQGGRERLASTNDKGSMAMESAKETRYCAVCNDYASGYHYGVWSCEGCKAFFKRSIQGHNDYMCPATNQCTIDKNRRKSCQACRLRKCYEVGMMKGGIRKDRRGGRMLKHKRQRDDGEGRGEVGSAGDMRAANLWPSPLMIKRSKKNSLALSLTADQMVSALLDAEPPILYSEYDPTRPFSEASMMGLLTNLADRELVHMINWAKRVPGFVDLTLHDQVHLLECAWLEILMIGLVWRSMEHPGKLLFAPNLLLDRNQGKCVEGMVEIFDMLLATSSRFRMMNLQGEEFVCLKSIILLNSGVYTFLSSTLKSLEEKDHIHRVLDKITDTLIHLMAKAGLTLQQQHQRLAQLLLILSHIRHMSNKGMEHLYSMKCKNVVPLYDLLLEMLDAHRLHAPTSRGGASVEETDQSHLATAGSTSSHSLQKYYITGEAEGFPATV
Description: (§1) ER binding affinity was determined via one of the following methods:
(§2) Briefly, the incubation mixture was filtered through a high affinity protein binding filter, and washed several times to remove any unbound radioactivity. The filter plate was air dried and sealed on the bottom.
(§3) Nonspecific binding was subtracted from total binding to yield specific binding.

[7] = molecular target: ERβ ligand binding domain (Homo sapiens, UniProt Q92731); test: Competitive [3H]-estradiol binding assay, ER-β (Example 21); details: for inhibition at 0.1 µM: read-out: Percent Inhibition of [3H]-Estradiol Binding to ER-β; for Ki: read-out: ER-β binding constant (Ki)
Chain of ERβ ligand binding domain (Q92731 whole entry, looked up, the tested form may be a part): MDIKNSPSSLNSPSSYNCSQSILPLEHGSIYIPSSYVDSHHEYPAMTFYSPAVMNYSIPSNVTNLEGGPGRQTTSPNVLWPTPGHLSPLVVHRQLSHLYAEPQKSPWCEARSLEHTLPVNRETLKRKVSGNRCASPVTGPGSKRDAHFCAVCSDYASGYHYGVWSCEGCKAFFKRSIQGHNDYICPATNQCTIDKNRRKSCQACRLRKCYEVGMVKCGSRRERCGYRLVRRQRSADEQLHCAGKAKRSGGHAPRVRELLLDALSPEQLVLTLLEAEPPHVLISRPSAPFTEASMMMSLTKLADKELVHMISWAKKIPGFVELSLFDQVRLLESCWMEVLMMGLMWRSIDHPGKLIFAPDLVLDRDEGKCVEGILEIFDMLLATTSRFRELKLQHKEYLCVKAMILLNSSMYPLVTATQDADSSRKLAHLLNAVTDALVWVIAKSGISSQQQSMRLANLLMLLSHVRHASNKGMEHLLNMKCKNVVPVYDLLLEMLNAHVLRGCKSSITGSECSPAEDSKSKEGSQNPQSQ
Description: as §1, §2, §3

[8] = read-out: Estradiol activity at 100 nM of NRBA, ER-β

## C=Cc1cn(-c2ccc(O)cc2)c(=O)c2c(O)cc(O)cc12 [14l, 6,8-dihydroxy-2-(4-hydroxyphenyl)-4-vinylisoquinolin-1(2H)-one]
[1]
  Inhibition of ROS formation: more than 50%
  Prevention of ROS formation / oxidative stress: protected ARPE-19 cells from oxidative damage
[2]; read-out: Estradiol activity at 100 nM of NRBA, ER-β, 100 nM compound compared to 1 nM estradiol
  activation at 0.1 µM: 52.7%
[3]; Rattus norvegicus
  EC50: 9630 nM
[3]
  Proliferation of RASMC: inhibited the proliferation of RASMC in a dose-dependent manner
[4]
  Estradiol activity at 100 nM of NRBA, ER-α: 50%
[5]
  Mean of Maximal % Decrease of the PE constriction of the aortic ring: 45.01%
  EC50: 19800 nM

## O=c1c2ccc(O)cc2c(Br)cn1-c1ccc(O)c(F)c1 [12d, 4-bromo-2-(3-fluoro-4-hydroxyphenyl)-6-hydroxy-isoquinolin-1(2H)-one]
[6]
  inhibition at 0.1 µM: 0%
[7]
  inhibition at 0.1 µM: 38.7%

## Oc1ccc(-n2ccc3cc(O)cc(O)c3c2=S)cc1 [12p, 2-(4-hydroxyphenyl)-6,8-dihydroxy-isoquinoline-1(2H)-thione]
[6]
  inhibition at 0.1 µM: 25.8%
[7]
  Ki Ratio (ER-α/ER-β): 8
  inhibition at 0.1 µM: 80.7%
[2]
  ER-β agonist activity: ER-β agonists; also recorded: ER-β agonist activity
[2]; [8]
  activation at 0.1 µM: 85%
[4]
  Estradiol activity at 100 nM of NRBA, ER-α: 45%

## C=Cc1cn(-c2ccc(O)c(F)c2)c(=O)c2c(O)cc(O)cc12 [15c, 2-(3-fluoro-4-hydroxyphenyl)-6,8-dihydroxy-4-vinylisoquinolin-1(2H)-one]
[6]
  Ki: 205 nM
[7]
  Ki Ratio (ER-α/ER-β): 51.7
  Ki: 3.96 nM

## O=c1c2c(O)cc(O)c(Br)c2ccn1-c1ccc(O)cc1 [12m, 5-bromo-6,8-dihydroxy-2-(4-hydroxyphenyl)isoquinolin-1(2H)-one]
[6]
  inhibition at 0.1 µM: 5.2%
[7]
  inhibition at 0.1 µM: 0%

## O=c1c2ccc(O)cc2c(I)cn1-c1ccc(O)cc1 [12h, 6-hydroxy-2-(4-hydroxyphenyl)-4-iodoisoquinolin-1(2H)-one]
[6]
  inhibition at 0.1 µM: 7.7%
[7]
  Ki Ratio (ER-α/ER-β): 22
  inhibition at 0.1 µM: 40.5%
[2]
  ER-β agonist activity: ER-β agonist activity

## COc1cc(O)c2c(=O)n(-c3ccc(O)cc3)cc(Br)c2c1 [12v, 4-bromo-8-hydroxy-2-(4-hydroxyphenyl)-6-methoxyisoquinolin-1(2H)-one]
[2]; [8]
  activation at 0.1 µM: 10%
[4]
  Estradiol activity at 100 nM of NRBA, ER-α: 17%

## COc1cc(O)c2c(=O)n(-c3ccc(O)cc3)ccc2c1C#N [12q, 8-hydroxy-2-(4-hydroxyphenyl)-6-methoxy-1-oxo-1,2-dihydroisoquinoline-5-carbonitrile]
[2]; [8]
  activation at 0.1 µM: 10%
[4]
  Estradiol activity at 100 nM of NRBA, ER-α: 25%

## C/C=C/c1cn(-c2ccc(O)cc2)c(=O)c2c(O)cc(O)cc12 [15i, (E)-6,8-dihydroxy-2-(4-hydroxyphenyl)-4-(prop-1-enyl)isoquinolin-1(2H)-one]
[6]
  Ki: 102 nM
[7]
  Ki Ratio (ER-α/ER-β): 61.4

## COc1ccc(-c2cn(-c3ccc(O)cc3)c(=O)c3ccc(O)cc23)cc1 [15b, 6-hydroxy-2-(4-hydroxyphenyl)-4-(4-methoxyphenyl)isoquinolin-1(2H)-one]
[7]
  Ki Ratio (ER-α/ER-β): 8.3

## O=c1c2ccc(O)cc2c(Cl)cn1-c1ccc(O)c(F)c1 [12g, 4-chloro-2-(3-fluoro-4-hydroxyphenyl)-6-hydroxy-isoquinolin-1(2H)-one]
[6]
  inhibition at 0.1 µM: 0%
[7]
  inhibition at 0.1 µM: 29.4%

## COc1ccc(-c2coc3cc(O)cc(O)c3c2=O)cc1 [Biochanin A, reference compound]
[3]
  Proliferation of RASMC: inhibited the proliferation of RASMC in a dose-dependent manner
  EC50: 9790 nM

## O=c1c2c(O)cc(O)cc2c(Br)cn1-c1ccc(O)c(F)c1 [12z, 4-bromo-6,8-dihydroxy-2-(3-fluoro-4-hydroxyphenyl)isoquinolin-1(2H)-one]
[6]
  inhibition at 0.1 µM: 52.8%
[1]
  Prevention of ROS formation / oxidative stress: able to prevent ROS formation as well as estradiol; also recorded: protected ARPE-19 cells from oxidative damage
[7]
  Ki Ratio (ER-α/ER-β): 12
  Ki: 3 nM
  inhibition at 0.1 µM: 95.3%
[2]
  ER-β agonist activity: ER-β agonist activity
[3]; Rattus norvegicus
  EC50: 25000 nM
[5]
  Mean of Maximal % Decrease of the PE constriction of the aortic ring: 83.58%
  EC50: 15100 nM

## COc1ccc(-c2cn(-c3ccc(O)cc3)c(=O)c3c(O)cc(O)cc23)cc1 [15g, 6,8-dihydroxy-2-(4-hydroxyphenyl)-4-(4-methoxyphenyl)isoquinolin-1(2H)-one]
[7]
  Ki: 0.48 nM

## O=c1c2ccc(O)cc2c(Cl)cn1-c1ccc(O)cc1 [12f, 4-chloro-6-hydroxy-2-(4-hydroxyphenyl)-isoquinolin-1(2H)-one]
[6]
  inhibition at 0.1 µM: 0%
[7]
  Ki Ratio (ER-α/ER-β): 61
  inhibition at 0.1 µM: 47.5%
[2]
  ER-β agonist activity: ER-β agonist activity

## Oc1ccc(-n2cc(Br)c3cc(O)ccc3c2=S)cc1 [12r, 4-bromo-6-hydroxy-2-(4-hydroxyphenyl)isoquinoline-1(2H)-thione]
[6]
  inhibition at 0.1 µM: 35.7%
[7]
  inhibition at 0.1 µM: 75.5%

## O=c1c2ccc(O)cc2c(I)cn1-c1ccc(O)c(F)c1 [12n, 2-(3-fluoro-4-hydroxyphenyl)-6-hydroxy-4-iodoisoquinolin-1(2H)-one]
[6]
  inhibition at 0.1 µM: 6.2%
[7]
  inhibition at 0.1 µM: 8.7%

## O=c1c2c(O)cc(O)cc2ccn1-c1ccc(O)c(F)c1 [12s, 2-(3-fluoro-4-hydroxyphenyl)-6,8-dihydroxyisoquinolin-1(2H)-one]
[6]
  inhibition at 0.1 µM: 4.5%
[7]
  Ki Ratio (ER-α/ER-β): 25
  inhibition at 0.1 µM: 52.8%
[2]
  ER-β agonist activity: ER-β agonist activity
[2]; [8]
  activation at 0.1 µM: 76.9%
[4]
  Estradiol activity at 100 nM of NRBA, ER-α: 29%

## N#Cc1cc(O)cc2c(Br)cn(-c3ccc(O)cc3)c(=O)c12 [14k, 4-bromo-6-hydroxy-2-(4-hydroxyphenyl)-1-oxo-1,2-dihydroisoquinoline-8-carbonitrile]
[6]
  Ki: > 394 nM
[7]
  Ki: 46 nM

## O=c1c2c(O)cc(O)cc2ccn1-c1ccc(O)cc1 [12l, 6,8-dihydroxy-2-(4-hydroxyphenyl)-isoquinolin-1(2H)-one]
[6]
  inhibition at 0.1 µM: 2.5%
[7]
  inhibition at 0.1 µM: 34.4%

## O=c1c2c(O)cc(O)cc2c(-c2ccccc2)cn1-c1ccc(O)cc1 [15h, 6,8-dihydroxy-2-(4-hydroxyphenyl)-4-phenylisoquinolin-1(2H)-one]
[6]
  Ki: 124 nM
[7]
  Ki Ratio (ER-α/ER-β): 41.1
